Holding throughout (assay type): in vivo
In assay [1] the test system is Resistant Plutella xylostella. The experiment in a line: Resistant Plutella xylostella Controlling Activity Test. The following applies: Plutella xylostella, in Raphanus sativus, 72 h. Here is the method:
Resistant Plutella xylostella Controlling Activity Test:
Leaf dipping method was used, the appropriate amount of radish leaves were dipped into the drug for 10 s, placed in a plastic petri dish padded with filter paper and dried naturally, each dish was connected with 10 heads of 2nd instar small cabbage moths, placed in the observation room at 24° C. and light (16/8 h). 72 h later observation was made, and the body of the insect was touched lightly with a brush and no reaction was regarded as a dead insect, which was repeated for three times, and a blank control was also set up without any additional agent.

In assay [2] the test system is Frankliniella occidentalis larvae. Nature of the assay: Frankliniella occidentalis Larva Controlling Activity Test. The following applies: for mortality at 3.25 ppm: read-out: mortality for Frankliniella occidentalis larvae. Here is the method: Frankliniella occidentalis Larva Controlling Activity Test:
The test compound is dissolved in acetone and diluted to the desired concentration. 0.5 mL of the prepared acetone medicinal liquid is added into a glass tube (the inner diameter is 1 cm, the length is 10 cm), and the glass tube is repeatedly rolled on a flat table until the acetone solution is completely volatilized. Soaking cabbage leaves in the liquid medicine with the corresponding concentration for 15 s, drying, placing in a glass tube, inoculating 10-20 heads of Frankliniella occidentalis larvae in the glass tube, repeating the treatment for three times, observing in a constant-temperature observation room after the treatment, investigating the number of live insects after 72 hours, and calculating the mortality.

The next assay has as its system Tetranychus cinnabarinus. The experiment in a line: Tetranychus cinnabarinus Controlling Activity Test. The following applies: 72 h; for mortality at 1.6 ppm: read-out: mortality against Tetranychus cinnabarinus; for mortality at 1.56 ppm / mortality at 3.125 ppm / mortality at 6.25 ppm / mortality at 12.5 ppm: in Phaseolus vulgaris. Here is the method:
Tetranychus cinnabarinus Controlling Activity Test:
The test compound was dissolved in acetone and diluted to the desired concentration with 0.1 wt % aqueous tween 80, the acetone content not exceeding 5 wt %.
One real leaf was removed from kidney bean seedlings grown to two real leaves, inoculating Tetranychus cinnabarinus, investigating the base number, performing whole plant spraying treatment by using a handheld sprayer, repeating the treatment for 3 times (the application amount of the preparation is about 0.5 g), observing in a constant-temperature observation room after the treatment, investigating the number of live mites after 72 hours, and calculating the mortality. The number of Tetranychus cinnabarinus inoculated in each time is 35-100.
Mortality%=(number of inoculated insects−number of live insects after drug administration)÷number of inoculated insects×100%

In assay [3] the test system is Sensitive Plutella xylostella. The experiment in a line: Sensitive Plutella xylostella Controlling Activity Test. From the text: Sensitive Plutella xylostella Controlling Activity Test:
Test targets: Plutella xylostella, 3 rd instar larvae, a sensitive strain raised indoors.
The test method comprises the following steps: selecting fresh cabbage leaves cultivated in a greenhouse, making the cabbage leaves into round with the diameter of 3 cm by using a puncher, putting the circular blade into prepared liquid medicine to be soaked for 10 s according to the sequence from low dose to high dose of experimental design, naturally drying the cabbage leaves in the shade, putting the soaked cabbage leaves into a culture dish with filter paper and the diameter of 9 cm, inoculating regular healthy test insects, n=10, repeating the treatment for 3 times, and additionally setting blank control.

The next assay concerns Spodoptera frugiperda. Nature of the assay: Spodoptera frugiperda Indoor Toxicity Determination Test. The following applies: in Zea mays, read-out: mortality against Spodoptera frugiperda. From the text: Spodoptera frugiperda Indoor Toxicity Determination Test
Test targets: Spodoptera frugiperda, 3rd instar larvae, a sensitive strain raised indoors.
The test method comprises the following steps: firstly, selecting fresh corn leaves cultivated in a greenhouse, cutting the fresh corn leaves into 5 cm-long leaf segments, sequentially arranging the test design from low dose to high dose, soaking the fresh corn leaves in prepared liquid medicine for 10 s, naturally drying the fresh corn leaves in the shade, then placing the dried corn leaves in a culture dish with filter paper and the diameter of 9 cm, inoculating regular healthy test insects, n=10, repeating the treatment for 3 times, and additionally arranging blank control.

The test system of another assay is Phyllotreta striolata. The experiment in a line: Phyllotreta striolata Controlling Activity Test. The following applies: 72 h, read-out: mortality against Phyllotreta striolata. The procedure: Phyllotreta striolata Controlling Activity Test:
Preparing liquid medicine according to the experimental design concentration, selecting fresh cabbage leaves, soaking the cabbage leaves for 15 s, taking out, airing, placing in a glass tube, connecting 20-25 heads of the Flea beetles adults with each tube, repeating the treatment for 3 times, investigating the death condition of the Phyllotreta striolata after 72 hours, and calculating and correcting the death rate.

Setting [4] is: read-out: mortality against Plutella xylostella.
Setting [5] is: 3.25 ppm (3.125 mg/L), larvae, 72 hours.
Where [6] appears, read: 1 ppm (1 mg/L), 3rd instar larvae, sensitive strain, read-out: mortality against Plutella xylostella.

The structures appear in SMILES notation. Like-named read-outs stand apart in the source and are kept apart here. A value given as a limit tells only on which side of the number the result lay.

Regarding `CNC(=O)c1cc(Cl)cc(C)c1NC(=O)c1cc(Br)nn1-c1ncccc1Cl` [Chlorantraniliprole, reference compound], in assay [1], the mortality (usually the share of the test organisms that died) at 0.2 ppm was determined as 33.3%, the mortality at 1 ppm was found to be 40% and the mortality at 5 ppm was determined as 66.7%.
Turning to `Cc1cc(C2=NOC(c3cc(Cl)c(Cl)c(Cl)c3)(C(F)(F)F)C2)ccc1C(=O)NC1CCS(=O)(=O)C1` (centres unmarked) [Compound I-3, N-(1,1-dioxotetrahydrothiophen-3-yl)-2-methyl-4-(5-(3,4,5-trichlorophenyl)-5-(trifluoromethyl)-4,5-dihydroisoxazol-3-yl) benzamide], the mortality at 3.25 ppm in assay [2] (72 h) was more than 90%. Moreover, the mortality at 1.6 ppm with Tetranychus cinnabarinus was more than 90%. Further, the mortality at 1 ppm in assay [3] (setting [4]) is more than 90%.
Consider `CC(=O)N(C(=O)c1ccc(C2=NOC(c3cc(Cl)c(F)c(Cl)c3)(C(F)(F)F)C2)cc1C)C1CCS(=O)(=O)C1` (centres unmarked) [Compound I-9, N-acetyl-4-(5-(3,5-dichloro-4-fluorophenyl)-5-(trifluoromethyl)-4,5-dihydroisoxazol-3-yl)-N-(1,1-dioxotetrahydrothiophen-3-yl)-2-methylbenzamide], for which, in assay [2] (72 h), the mortality at 3.25 ppm is more than 90%. Moreover, the mortality at 1.6 ppm with Tetranychus cinnabarinus was more than 90%. Besides, the mortality at 1 ppm in assay [3] (setting [4]) was more than 90%. In addition, in assay [1], the mortality at 0.2 ppm was 43.3%, the mortality at 1 ppm was 100% and the mortality at 5 ppm is 100%.
Turning to `CCC(=O)N(C(=O)c1ccc(C2=NOC(c3cc(Cl)c(F)c(Cl)c3)(C(F)(F)F)C2)cc1C)C1CCS(=O)(=O)C1` (centres unmarked) [Compound I-10, N-propionyl-4-(5-(3,5-dichloro-4-fluorophenyl)-5-(trifluoromethyl)-4,5-dihydroisoxazol-3-yl)-N-(1,1-dioxotetrahydrothiophen-3-yl)-2-methylbenzamide], in assay [2] (72 h), the mortality at 3.25 ppm was more than 90%. In assay [2] (in Brassica oleracea, 72 h), the mortality at 1.56 ppm was determined as 92%, the mortality at 3.125 ppm worked out at 100% and the mortality at 6.25 ppm was 100%. Also, in the assay with Tetranychus cinnabarinus, the mortality at 1.6 ppm was more than 90%, the mortality at 1.56 ppm is 97.2%, the mortality at 3.125 ppm was determined as 100% and the mortality at 6.25 ppm is 100%. This molecule also had a mortality at 12.5 ppm in the assay on Tetranychus cinnabarinus of 100%. Moreover, the mortality at 1 ppm in the assay with Spodoptera frugiperda is more than 90%. Moreover, the mortality at 1 ppm in assay [3] (setting [4]) was more than 90%.
With `Cc1cc(C2=NOC(c3cc(Cl)c(F)c(Cl)c3)(C(F)(F)F)C2)ccc1C(=O)N[C@H]1CCS(=O)(=O)C1` (stereo partly drawn) [Compound I-13, 4-(5-(3,5-dichloro-4-fluorophenyl)-5-(trifluoromethyl)-4,5-dihydroisoxazol-3-yl)-N—((S)-1,1-dioxotetrahydrothiophen-3-yl)-2-methylbenzamide], the mortality at 3.25 ppm in assay [2] (72 h) was more than 90%. In addition, the mortality at 1 ppm in assay [3] (setting [4]) was more than 90%.
For the molecule `Cc1cc(C2=NO[C@@](c3cc(Cl)c(F)c(Cl)c3)(C(F)(F)F)C2)ccc1C(=O)N[C@H]1CCS(=O)(=O)C1` [Compound I-15], the mortality at 3.25 ppm in assay [2] (setting [5]) was more than 90%. For the same molecule, in assay [3] (setting [6]), the mortality at 1 ppm is more than 90%.
Regarding `Cc1cc(C2=NO[C@@](c3cc(Cl)c(F)c(Cl)c3)(C(F)(F)F)C2)ccc1C(=O)N[C@@H]1CCS(=O)(=O)C1` [Compound I-16], in assay [2] (setting [5]), the mortality at 3.25 ppm is more than 90%. Further, in assay [3] (setting [6]), the mortality at 1 ppm is more than 90%.
For `Cc1cc(C2=NO[C@@](c3cc(Cl)c(F)c(Cl)c3)(C(F)(F)F)C2)ccc1C(=O)NC1CCS(=O)(=O)C1` (stereo partly drawn) [Compound I-17, 4-((S)-5-(3,5-dichloro-4-fluorophenyl)-5-(trifluoromethyl)-4,5-dihydroisoxazol-3-yl)-N-(1,1-dioxotetrahydrothiophen-3-yl)-2-methylbenzamide], the mortality at 3.25 ppm in assay [2] (72 h) was more than 90%. In addition, the mortality at 50 ppm in the assay on Phyllotreta striolata was more than 90%. In addition, in the assay on Tetranychus cinnabarinus, the mortality at 1.6 ppm is more than 90%, the mortality at 1.56 ppm stood at 100%, the mortality at 3.125 ppm was found to be 100% and the mortality at 6.25 ppm worked out at 100%. Further, in the assay on Tetranychus cinnabarinus, the mortality at 12.5 ppm was determined as 100%. Further, the mortality at 1 ppm in assay [3] (setting [4]) was more than 90%.
Take `Cc1cc(C2=NO[C@](c3cc(Cl)c(F)c(Cl)c3)(C(F)(F)F)C2)ccc1C(=O)N[C@H]1CCS(=O)(=O)C1` [Compound I-18]: the mortality at 3.25 ppm in assay [2] (setting [5]) is more than 90%. For the same molecule, the mortality at 1 ppm in assay [3] (setting [6]) is more than 90%.
Consider `Cc1cc(C2=NOC(c3cc(Cl)c(F)c(Cl)c3)(C(F)(F)F)C2)ccc1C(=O)N(C(=O)C(C)C)C1CCS(=O)(=O)C1` (centres unmarked) [Compound I-21, N-isopropionyl-4-(5-(3,5-dichloro-4-fluorophenyl)-5-(trifluoromethyl)-4,5-dihydroisoxazol-3-yl)-N-(1,1-dioxotetrahydrothiophen-3-yl)-2-methylbenzamide], for which the mortality at 3.25 ppm in assay [2] (72 h) is more than 90%. Moreover, in assay [3] (setting [4]), the mortality at 1 ppm was more than 90%.
Turning to `Cc1cc(C2=NOC(c3cc(Cl)c(F)c(Cl)c3)(C(F)(F)F)C2)ccc1C(=O)N(C(=O)C1CC1)C1CCS(=O)(=O)C1` (centres unmarked) [Compound I-22, N-cyclopropanoyl-4-(5-(3,5-dichloro-4-fluorophenyl)-5-(trifluoromethyl)-4,5-dihydroisoxazol-3-yl)-N-(1,1-dioxotetrahydrothiophen-3-yl)-2-methylbenzamide], the mortality at 3.25 ppm in assay [2] (72 h) was more than 90%. Also, the mortality at 1 ppm in assay [3] (setting [4]) was more than 90%.
Consider `Cc1cc(C2=NOC(c3cc(Cl)c(F)c(Cl)c3)(C(F)(F)F)C2)ccc1C(=O)NC1CCSC1` (centres unmarked) [Compound I-23], for which, in assay [2] (setting [5]), the mortality at 3.25 ppm was more than 90%. Besides, the mortality at 1 ppm in assay [3] (setting [6]) was more than 90%.
`CO/N=C/NC(=O)c1ccc(C2=NOC(c3cc(Cl)cc(Cl)c3)(C(F)(F)F)C2)cc1C` (centres unmarked) [Fluxametamide, 4-[5-(3,5-dichlorophenyl)-4,5-dihydro-5-(trifluoromethyl)-3-isoxazolyl]-N-[(methoxyamino)methylene]-2-methylbenzamide, reference compound]: in assay [2] (in Brassica oleracea, 72 h), the mortality at 1.56 ppm was determined as 0%, the mortality at 3.125 ppm was determined as 0% and the mortality at 6.25 ppm came out at 0%. In the assay with Tetranychus cinnabarinus, the mortality at 1.56 ppm is 0%, the mortality at 3.125 ppm is 25.6%, the mortality at 6.25 ppm is 81.5% and the mortality at 12.5 ppm stood at 96.8%. In assay [3] (in Brassica oleracea, 72 h), the mortality at 0.333 ppm was determined as 0% and the mortality at 1 ppm worked out at 5%. In assay [1], this molecule had a mortality at 0.2 ppm of 3.33%, a mortality at 1 ppm of 93.3% and a mortality at 5 ppm of 100%.
On to `Cc1cc(C2=NOC(c3cc(Cl)c(F)c(Cl)c3)(C(F)(F)F)C2)ccc1C(=O)NC1CS(=O)(=O)C1` (centres unmarked) [X.82, reference compound], for which the mortality at 1.56 ppm in assay [2] (1.56 ppm, larvae, cabbage leaves soaked 15 s, 72 hours, read-out: Mortality (%)) came out at 0%. The mortality at 3.125 ppm in assay [2] (3.125 ppm, larvae, cabbage leaves soaked 15 s, 72 hours, read-out: Mortality (%)) was 0%. The mortality at 6.25 ppm in assay [2] (6.25 ppm, larvae, cabbage leaves soaked 15 s, 72 hours, read-out: Mortality (%)) was determined as 65%. Also, the mortality at 0.333 ppm in assay [3] (72 h, 0.333 ppm, 3rd instar larvae, sensitive strain, cabbage leaves soaked 10 s, three days, read-out: Mortality (%)) amounted to 0%. Moreover, in assay [3] (72 h, 1 ppm, 3rd instar larvae, sensitive strain, cabbage leaves soaked 10 s, three days, read-out: Mortality (%)), the mortality at 1 ppm came to 10%.

The values are drawn from patent US20260293897A1, “COMPOUND CONTAINING FIVE-MEMBERED HETEROCYCLE, PREPARATION METHOD THEREFOR, AND APPLICATION THEREOF” (QINGDAO KANGQIAO PESTICIDES AND CHEMICALS GROUP CO., LTD., priority 2022, published 2026).
